{"source": "patent US6627749B1", "about": "(University of Iowa Research Foundation, priority 1999, dated 2003)", "key": {"[1]": {"test": "Stability of CPT standard solutions (HPLC)", "assay_type": "physicochemical", "protocol": "The lactone and carboxylate forms of CPT were analyzed by HPLC using a fully-automated Shimadzu LC-10 system, equipped with a fluorescence detector, a Supelco's C-18 discovery column (15 cm×4.6 mm, 5 am Supelco Park, Bellefonte, Pa.) and a guard column. The detector was set at an excitation wavelength of 370 nm and an emission wavelength of 435 nm. The mobile phase consisted of a 73.27 (v/v) mixture of triethylamine-acetate buffer (0.1% triethylamine, adjusted with glacial acetic acid to pH 5.5) and acetonitrile. A flow rate of 1 ml/min and an injection volume of 20 μl were used in the analysis. To avoid carryover between successive injections, the injector was washed thoroughly with methanol. The standard solutions of CPT-lactone and CPT-carboxylate were made by dilution of the CPT stock solution in dimethylsulfoxide (DMSO) with 0.02M HC1 and 0.02M NaOH solutions, respectively. The analysis of the CPT-lactone was performed immediately, whereas that of CPT-carboxylate 30 min. after making the solution. Standard solutions of CPT-lactone and CPT-carboxylate were stable for two weeks at 4° C. and for 24 hours at room temperature."}, "[2]": {"test": "In-vitro dissolution of CPT in pH 7.4 phosphate buffer (dialysis bag)", "assay_type": "physicochemical", "conditions": "0.02% Tween 80, 37° C., sink conditions", "protocol": "The dissolution of CPT from microspheres and physical mixtures and that of free CPT was evaluated in pH 7.4 phosphate buffer solution (composition: 137 mM NaCl, 3 mM KC1, 8 mM Na2HPO4, 1 mM KH2PO4), containing 0.02% Tween 80 at 37° C. under sink conditions. Briefly, an accurately weighed amount of microspheres was suspended in the buffer medium. The suspension was placed in a dialysis bag (MWCO […], Snakeskin™) and then dialyzed against the buffer solution. 1 ml of the release medium was removed at the predetermined time intervals. To maintain the sink condition, an equal volume of the fresh buffer solution was immediately added to the release medium. The concentrations of both lactone and carboxylate forms of CPT in the release media were determined by HPLC assay."}, "[3]": {"system": "human-derived lymphoid RPMI-8402 leukemia cells", "test": "Cytotoxicity, inhibition of DNA synthesis (3H-thymidine)", "assay_type": "cell-based", "conditions": "lymphoid RPMI-8402 cells", "protocol": "(§1) The cytotoxicity of free CPT and OC—(COOH 20%)/CPT microspheres was evaluated against human-derived lymphoid RPMI-8402 (FIG. 7) and myeloid THP-1 leukemia cell lines (see FIG. 6). […] The cells were diluted to 1×10^6 cells/ml in RPMI 1640 media, supplemented with 1% pen/strep, 1% glutamine, and 10% fetal calf serum, and plated in triplicate at the 2×10^5 cells/well in a 96 well plate. CPT or OC—(COOH 20%)/CPT microspheres were then added, at the equal concentrations, to the wells and the cells were incubated for 20 hours at 37° C. and in 5% CO2. Radiolabeled thymidine (0.04 μci/well) was added to each well at 20 hours and 24 hours. The cells were harvested onto a Reeves Angel 934 AH filter using a Brandel automated cell harvester. Radiolabeled DNA was then measured as disintegration per minute (dpm) by scintillation spectroscopy."}, "[4]": {"system": "human-derived myeloid THP-1 leukemia cells", "test": "Cytotoxicity, inhibition of DNA synthesis (3H-thymidine)", "assay_type": "cell-based", "conditions": "myeloid THP-1 cells", "protocol": "as §1"}}}
{"compound": "CCC(O)(C(=O)O)c1cc2n(c(=O)c1CO)Cc1cc3ccccc3nc1-2", "note": "(stereo not shown) [CPT-carboxylate]", "values": [{"measurement": "stability of standard solution", "setting": "[1]; at 4° C.", "value": "two weeks"}, {"measurement": "stability of standard solution", "setting": "[1]; at room temperature", "value": 24, "unit": "h"}]}
{"compound": "CC[C@@]1(O)C(=O)OCc2c1cc1n(c2=O)Cc2cc3ccccc3nc2-1", "note": "[CPT-lactone]", "values": [{"measurement": "stability of standard solution", "setting": "[1]; at 4° C.", "value": "two weeks"}, {"measurement": "stability of standard solution", "setting": "[1]; at room temperature", "value": 24, "unit": "h"}]}
{"compound": "CC[C@@]1(O)C(=O)OCc2c1cc1n(c2=O)Cc2cc3ccccc3nc2-1", "note": "[Free CPT, 20(S)-camptothecin]", "values": [{"measurement": "T-50 (hrs), dissolution of CPT", "setting": "[2]", "value": 118.6, "unit": "h"}, {"measurement": "ED50", "setting": "[3]", "value": 0.025, "unit": "µg/mL"}, {"measurement": "ED50", "setting": "[4]", "value": 0.75, "unit": "µg/mL"}]}
